Data as given in PMC3930709, “Selective Activation of hTRPV1 by N-Geranyl Cyclopropylcarboxamide, an Amiloride-Insensitive Salt Taste Enhancer” (PLoS ONE, 2014).

What was measured:
[1] = system: mock-transfected HEK293T cells; assay: Ca2+ imaging of mock-transfected HEK293T cells (control); assay type: cell-based, human; settings: single concentration
Description: (§1) Mock-transfected HEK293T cells, hTRPV1-expressing HEK293T cells, non-hTRPA1-expressing Flp-In 293 cells, and hTRPA1-expressing Flp-In 293 cells grown in 96-well black-wall plates were rinsed with assay buffer (130 mM NaCl, 10 mM glucose, 5 mM KCl, 2 […]2, 1.2 mM MgCl2, and 10 mM HEPES, pH 7.4) and loaded with 5 μM Fura-2 AM (Invitrogen) for 30 min at 27°C. The cells were washed with assay buffer and treated with ligands. […] The fluorescence intensities of Fura-2 excited at 340 and 380 nm were simultaneously measured at 510 nm using a computer-controlled filter changer (Lambda DG4; Sutter, San Rafael, CA, USA), an Andor Luca CCD camera (Andor Technology, Belfast, UK), and an inverted fluorescence microscope (IX-71; Olympus, Tokyo, Japan). Intracellular calcium images were recorded every 3-s for 60-s and analyzed using MetaFluor software (Molecular Devices, Sunnyvale, CA, USA).

[2] = system: non-hTRPA1-expressing Flp-In 293 cells; assay: Ca2+ imaging of non-hTRPA1-expressing Flp-In 293 cells (control); assay type: cell-based, human; settings: comparison with hTRPA1-expressing cells
Description: as §1, with “Flp-In 293 cell lines stably expressing hTRPA1constructed as previously reported was a gift from the professor […] at University of Tokyo. The hTRPA1-expressing cells were cultured in DMEM containing 10% FBS and 0.02% hygromycin B (Invitrogen). Flp-In 293 cell lines were maintained in DMEM containing 10% FBS. All cells were incubated at 37°C in a humidified atmosphere of 5% CO2. […] Mock-transfected” for “Mock-transfected”

hTRPV1 = molecular target: T1, hTRPV1 (Homo sapiens, UniProt Q8NER1); assay: Whole-cell patch clamp recording, hTRPV1-expressing HEK293T cells; assay type: cell-based; settings: capsaicin 100 nM; NGCC 10^3 µM; holding -80 mV
T1 construct: expressed in transfected cells; host or cells: HEK293T
Description: (§2) Mouse ASIC1a (mASIC1a) was a kind gift from John A. Wemmie (University of Iowa, IA, USA). For electrophysiological experiments, HEK293T cells were cultured in DMEM supplemented with 10% FBS and 0.2% penicillin/streptomycin and transiently transfected using Lipofectamine 2000 (Invitrogen) with various cDNAs. For TRPV1 channel expression, cells were transfected with hTRPV1, for ASIC1a homomeric channel expression, cells were transfected with mASIC1a. When needed, 0.1–0.2 µg of cDNA encoding tetrameric red fluorescence protein (DsRed) was co-transfected with the cDNA as a marker for successfully transfected cells. For non-transfected cells, cells were transfected with 0.1–0.2 µg of cDNA encoding DsRed alone. The next day, cells were plated onto poly-L-lysine-coated coverslip chips, and fluorescent cells were studied within 1–2 days.
The whole-cell configuration was used to voltage-clamp at room temperature (22–25°C). Electrodes pulled from glass micropipette capillaries (Sutter Instrument) had resistances of 2–2.5 MΩ, and series resistance errors were compensated >60%. Fast and slow capacitances were compensated before the application of test-pulse. Recordings were performed using aHEKAEPC-10 amplifier with pulse software (HEKA Elektronik). The pipette solution contained: 140 mM KCl, 5 mM MgCl2, 10 mM HEPES, 0.1 mM 1,2-bis(2-aminophenoxy) ethane N,N,N’,N’-tetraacetic acid(BAPTA), 3 mM Na2ATP, and 0.1 mM Na3GTP, adjusted to pH 7.4 with KOH. The external Ringer’s solution used for recording TRPV1 and TRPA1 currents contained: 150 mM NaCl, 5 mM KCl, 1 mM MgCl2, 2 mM EGTA, 10 mM Glucose, and 10 mM HEPES, adjusted to pH 7.4 with NaOH. TRPV1 and TRPA1 currents were recorded by holding the cell at −80 mV. The external Ringer’s solution used for recording ASIC current contained: 160 mM NaCl, 5 mM KCl, 1 mM MgCl2, 2 mM CaCl2, and 10 mM HEPES, adjusted to pH 7.4 with tetramethylammonium hydroxide. For acidic solution of pH 6.0, HEPES was replaced with MES. ASIC currents were recorded by holding the cell at −70 mV. Reagents were obtained as follows: BAPTA, Na2ATP, Na3GTP, EGTA, and tetramethylammonium hydroxide (Sigma), HEPES (Calbiochem), MES (Alfa Aesar), and other chemicals (Merck).

non-transfected cells = assay: Whole-cell patch clamp recording, non-transfected cells (control); assay type: cell-based, human; settings: capsaicin 100 nM, AITC 100 µM, NGCC 10^3 µM
Description: as §2
The whole-cell configuration was used to voltage-clamp at room temperature (22–25°C). Electrodes pulled from glass micropipette capillaries (Sutter Instrument) had resistances of 2–2.5 MΩ, and series resistance errors were compensated >60%. Fast and slow capacitances were compensated before the application of test-pulse. Recordings were performed using aHEKAEPC-10 amplifier with pulse software (HEKA Elektronik). […] TRPV1 and TRPA1 currents were recorded by holding the cell at −80 mV. […] ASIC currents were recorded by holding the cell at −70 mV. […]

T1 sequence (Q8NER1 whole entry): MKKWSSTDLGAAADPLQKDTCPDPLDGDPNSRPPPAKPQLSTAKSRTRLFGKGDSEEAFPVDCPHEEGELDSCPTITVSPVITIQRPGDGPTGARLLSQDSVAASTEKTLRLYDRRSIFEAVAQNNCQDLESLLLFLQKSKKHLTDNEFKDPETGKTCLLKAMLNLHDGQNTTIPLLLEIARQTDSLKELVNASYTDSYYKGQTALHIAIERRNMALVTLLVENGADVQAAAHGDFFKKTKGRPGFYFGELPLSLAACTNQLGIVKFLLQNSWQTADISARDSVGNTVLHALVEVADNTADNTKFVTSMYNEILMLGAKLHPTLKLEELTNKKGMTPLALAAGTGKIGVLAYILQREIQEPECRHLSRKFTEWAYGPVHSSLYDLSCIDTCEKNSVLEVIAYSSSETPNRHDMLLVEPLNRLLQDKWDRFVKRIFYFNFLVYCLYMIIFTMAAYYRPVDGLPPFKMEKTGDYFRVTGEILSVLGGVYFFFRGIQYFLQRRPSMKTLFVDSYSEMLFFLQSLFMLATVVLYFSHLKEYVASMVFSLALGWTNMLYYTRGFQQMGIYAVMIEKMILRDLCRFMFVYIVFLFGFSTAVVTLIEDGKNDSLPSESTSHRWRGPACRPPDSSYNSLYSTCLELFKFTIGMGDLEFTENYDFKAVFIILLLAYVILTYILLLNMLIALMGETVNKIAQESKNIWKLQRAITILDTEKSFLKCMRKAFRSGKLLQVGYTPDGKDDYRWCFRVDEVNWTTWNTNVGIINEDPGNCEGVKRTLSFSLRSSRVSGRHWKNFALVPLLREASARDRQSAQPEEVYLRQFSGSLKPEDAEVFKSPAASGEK

## CC(C)=CCC/C(C)=C/CNC(=O)C1CC1 [NGCC, N-geranylcyclopropylcarboxamide]
[1]
  change in fluorescence in mock-transfected cells: no changes in fluorescence
[2]
  NGCC activity in non-hTRPA1-expressing Flp-In 293 cells: reacts specifically with hTRPA1
hTRPV1
  inward current in cells expressing hTRPV1: triggered an inward current
non-transfected cells
  current in non-transfected cells: no current
